Active and inactive are the calls of the source. No cut-off for these calls is given here.
Key:
[1] = tested on: Zika virus; assay: Antiviral activity against ZIKV infected in African green monkey vero cells assessed as reduction in plaque formation incubated for 5 days by crystal violet based assay; type: functional, organism-based; conditions: for EC50: 120 h
[2] = Cytotoxicity against african green monkey Vero cells incubated for 96 hrs; type: toxicity, cell-based; conditions: chlorocebus sabaeus
[3] = target: Genome polyprotein (Zika virus, UniProt Q32ZE1); assay: Inhibition of ZIKV NS5 MTase activity assessed as methyltransferase reaction using capped RNA substrate pre-incubated for 2.5 hrs followed by enzyme addition measured after 1 hrs by luminometer
[4] = tested on: Zika virus; assay: Antiviral activity against ZIKV infected in African green monkey Vero cells incubated for 48 hrs by Western blot analysis relative to control; type: functional, organism-based
[5] = tested on: Zika virus; assay: Antiviral activity against ZIKV infected in human Huh-7 cells incubated for 48 hrs by qRT-PCR analysis; type: functional, organism-based; conditions: Huh-7, 48 h
[6] = tested on: Zika virus; assay: Antiviral activity against ZIKV infected in Vero cells assessed as late viral life cycle by measuring reduction in viral RNA reduction at 10 uM treated 8 hrs post infection incubated for 48 hrs by qRT-PCR analysis based time of drug addition assay; type: functional, organism-based
[7] = tested on: Zika virus; assay: Antiviral activity against ZIKV infected in human A549 cells incubated for 48 hrs by qRT-PCR; type: functional, organism-based; conditions: A549, 48 h
[8] = tested on: Zika virus; assay: Antiviral activity against ZIKV infected in Vero cells assessed as viral RNA reduction at 10 uM treated immediately post infection incubated for 48 hrs by qRT-PCR analysis based time of drug addition assay; type: functional, organism-based
[9] = tested on: Zika virus; assay: Antiviral activity against ZIKV infected in African green monkey Vero cells assessed as inhibition of ZIKV E protein at 0.4 uM incubated for 48 hrs by Western blot analysis relative to control; type: functional
[10] = Cytotoxicity against human A549 cells incubated for 96 hrs; type: toxicity, cell-based
[11] = target: NS5 (Zika virus) (UniProt A0A143MHK7); assay: Inhibition of ZIKV RdRP
[12] = tested on: Zika virus; assay: Antiviral activity against ZIKV infected in Vero cells assessed as late viral life cycle by measuring reduction in viral RNA reduction at 10 uM treated 12 hrs post infection incubated for 48 hrs by qRT-PCR analysis based time of drug addition assay; type: functional, organism-based
[13] = tested on: Zika virus; assay: Antiviral activity against ZIKV infected in African green monkey vero cells incubated for 48 hrs by qRT-PCR analysis; type: functional, organism-based
[14] = tested on: Zika virus; assay: Antiviral activity against ZIKV infected in Vero cells assessed as late entry stage to late viral life cycle by measuring reduction in viral RNA reduction at 10 uM treated 1 to 2 hrs post infection incubated for 48 hrs by qRT-PCR analysis based time of drug addition assay; type: functional, organism-based
[15] = tested on: Zika virus; assay: Antiviral activity against ZIKV infected in Vero cells assessed as virucidal effect at 10 uM pre-treated with virus for 2 hrs followed by infected with Vero cells for 2 hrs after washout transferred to normal medium measured after 48 hrs of post infection by qRT-PCR analysis based time of drug addition assay; type: functional, organism-based; conditions: time 4.0 hrs
[16] = Cytotoxicity against human Huh-7 cells incubated for 96 hrs; type: toxicity, cell-based
[17] = tested on: Zika virus; assay: Antiviral activity against ZIKV infected in Vero cells assessed as viral infection at 10 uM pre-treated with Vero cells for 2 hrs followed by infected with virus cells for 2 hrs and measured upto 48 hrs in fresh medium by qRT-PCR analysis based time of drug addition assay; type: functional, organism-based; conditions: time 4.0 hrs
[18] = tested on: Zika virus; assay: Antiviral activity against ZIKV infected in Vero cells assessed as inhibition of viral entry at 10 uM Co-treated with virus with Vero cells followed by transferred into fresh medium measured upto 48 hrs by qRT-PCR analysis based time of drug addition assay; type: functional, organism-based; conditions: time 4.0 hrs
[19] = tested on: Zika virus; assay: Antiviral activity against ZIKV infected in Vero cells assessed as late viral life cycle by measuring reduction in viral RNA reduction at 10 uM treated 3 to 6 hrs post infection incubated for 48 hrs by qRT-PCR analysis based time of drug addition assay; type: functional, organism-based
[20] = tested on: Zika virus; assay: Antiviral activity against ZIKV infected in Vero cells assessed as late RNA synthesis to late viral life cycle by measuring reduction in viral RNA reduction at 10 uM treated 10 hrs post infection incubated for 48 hrs by qRT-PCR analysis based time of drug addition assay relative to 8 hrs post-infection; type: functional, organism-based
[21] = target: Nonstructural protein 3 (Zika virus) (UniProt A0A024AXB9); assay: Inhibition of ZIK virus NS2B-NS3 protease
[22] = tested on: Zika virus; assay: Antiviral activity against ZIKV infected in African green monkey Vero cells assessed as inhibition of ZIKV E protein at 10 uM incubated for 48 hrs by Western blot analysis relative to control; type: functional

Genome polyprotein, sequence (Q32ZE1 2517-3419 limits assumed): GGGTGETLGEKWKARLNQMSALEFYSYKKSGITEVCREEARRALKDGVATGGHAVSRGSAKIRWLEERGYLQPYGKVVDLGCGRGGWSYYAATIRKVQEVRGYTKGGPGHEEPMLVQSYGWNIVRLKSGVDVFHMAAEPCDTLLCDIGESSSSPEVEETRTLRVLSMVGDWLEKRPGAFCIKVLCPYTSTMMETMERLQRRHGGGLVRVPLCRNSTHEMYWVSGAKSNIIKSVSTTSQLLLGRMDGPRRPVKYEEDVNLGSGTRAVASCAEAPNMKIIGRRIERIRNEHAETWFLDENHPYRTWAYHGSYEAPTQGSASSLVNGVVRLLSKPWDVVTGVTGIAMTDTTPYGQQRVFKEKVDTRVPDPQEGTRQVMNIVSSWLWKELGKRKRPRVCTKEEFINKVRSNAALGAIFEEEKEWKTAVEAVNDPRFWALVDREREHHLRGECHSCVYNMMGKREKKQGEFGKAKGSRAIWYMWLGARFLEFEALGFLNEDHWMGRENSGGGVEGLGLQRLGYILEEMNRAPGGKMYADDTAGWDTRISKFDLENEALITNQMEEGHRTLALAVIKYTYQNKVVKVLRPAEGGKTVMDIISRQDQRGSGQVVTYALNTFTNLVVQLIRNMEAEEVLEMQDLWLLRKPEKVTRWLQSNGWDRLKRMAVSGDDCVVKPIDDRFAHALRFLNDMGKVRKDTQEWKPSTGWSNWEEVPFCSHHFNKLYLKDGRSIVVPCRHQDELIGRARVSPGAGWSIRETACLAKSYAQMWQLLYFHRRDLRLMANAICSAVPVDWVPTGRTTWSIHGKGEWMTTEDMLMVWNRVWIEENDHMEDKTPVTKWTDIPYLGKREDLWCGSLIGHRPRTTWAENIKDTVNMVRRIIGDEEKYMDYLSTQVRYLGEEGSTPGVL
NS5 (Zika virus), sequence (A0A143MHK7 as listed by the source): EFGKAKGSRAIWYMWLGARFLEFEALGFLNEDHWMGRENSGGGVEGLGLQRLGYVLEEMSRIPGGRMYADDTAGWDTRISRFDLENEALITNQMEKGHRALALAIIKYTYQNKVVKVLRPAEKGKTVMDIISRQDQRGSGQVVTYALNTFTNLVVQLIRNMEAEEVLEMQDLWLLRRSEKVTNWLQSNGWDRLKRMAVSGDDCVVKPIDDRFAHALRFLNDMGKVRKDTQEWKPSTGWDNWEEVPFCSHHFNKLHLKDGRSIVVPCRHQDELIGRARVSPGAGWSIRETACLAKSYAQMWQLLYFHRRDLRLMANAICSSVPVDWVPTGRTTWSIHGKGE
Nonstructural protein 3 (Zika virus), sequence (A0A024AXB9 as listed by the source): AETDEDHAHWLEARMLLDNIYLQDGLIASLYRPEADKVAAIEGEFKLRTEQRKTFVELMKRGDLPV

SMILES: C=C1CC[C@H]2[C@@](C)(CCC(=O)[C@@]2(C)COC(c2ccccc2)(c2ccccc2)c2ccccc2)[C@@H]1/C=C/C1=CCOC1=O
- Activity ([1]; time 5.0 day): inactive

SMILES: C=C1CC[C@@H]2[C@](C)(CO)[C@H](O)CC[C@@]2(C)[C@@H]1/C=C/C1=CCOC1=O
- EC50 [1]: 30.6 µM
- CC50 at 96 h [2]: > 200 µM

SMILES: C=C1CC[C@H]2[C@@](C)(CC/C(=N\O)[C@@]2(C)CO[Si](c2ccccc2)(c2ccccc2)C(C)(C)C)[C@@H]1/C=C/C1=CCOC1=O
- EC50 [1]: 0.71 µM
- IC50 [3]: 14.1 µM
- CC50 at 96 h [2]: > 200 µM

SMILES: C=C1CC[C@H]2[C@@](C)(CC/C(=N\O)[C@@]2(C)COC(c2ccccc2)(c2ccccc2)c2ccccc2)[C@@H]1/C=C/C1=CCOC1=O
- EC50 [4]: 0.38 µM
- EC50 [1]: 0.76 µM
- EC50 [5]: 0.37 µM
- Activity [6]: Active
- EC50 [7]: 0.45 µM
- Activity [8]: Active
- inhibition at 0.4 µM [9]: 100%
- IC50 [3]: 18.3 µM
- CC50 at 96 h [10]: > 200 µM
- CC50 at 96 h [2]: > 200 µM
- inhibition [11]: inactive
- Activity [12]: inactive
- EC50 [13]: 0.48 µM
- Activity [14]: Active
- Activity [15]: inactive
- CC50 at 96 h [16]: > 200 µM
- Activity [17]: inactive
- Activity [18]: inactive
- Activity [19]: Active
- Activity [20]: inactive
- inhibition [21]: inactive

SMILES: C=C1CC[C@@H]2[C@](C)(CO)[C@H](O)CC[C@@]2(C)[C@@H]1C/C=C1/C(=O)OC[C@H]1O [ANDROGRAPHOLIDE]
- EC50 [1]: 39.3 µM
- CC50 at 96 h [2]: > 200 µM

SMILES: C=C1CC[C@H]2[C@@](C)(CC/C(=N\O)[C@@]2(C)COC(c2ccccc2)c2ccccc2)[C@@H]1/C=C/C1=CCOC1=O
- EC50 [1]: 3.49 µM
- IC50 [3]: 183 µM

SMILES: NC(=O)c1ncn([C@@H]2O[C@H](CO)[C@@H](O)[C@H]2O)n1 [RIBAVIRIN]
- inhibition at 10 µM [22]: 50%

SMILES: Nc1ncnc2c1ncn2[C@@H]1O[C@H](C[C@@H](N)CC[C@H](N)C(=O)O)[C@@H](O)[C@H]1O [SINEFUNGIN]
- IC50 [3]: 19.2 µM

SMILES: C=C1CC[C@@H]2[C@](C)(COC(c3ccccc3)(c3ccccc3)c3ccccc3)[C@H](O)CC[C@@]2(C)[C@@H]1/C=C/C1=CCOC1=O
- EC50 [1]: 6.17 µM
- IC50 [3]: 38.9 µM
- CC50 at 96 h [2]: > 200 µM

Source: ChEMBL document CHEMBL5352408, “Discovery of dehydroandrographolide derivatives with C19 hindered ether as potent anti-ZIKV agents with inhibitory activities to MTase of ZIKV NS5” (Eur J Med Chem, 2022)
